Measurements taken from ChEMBL document CHEMBL1144362, “Synthesis and biological evaluation of novel 1,4-naphthoquinone derivatives as antibacterial and antiviral agents” (2005).
Converted amounts (≈) assume the structure as drawn.

Assays:
Klebsiella pneumoniae = test: Minimum inhibitory concentration gainst Klebsiella pneumoniae by broth microdilution technique; type: functional
Pseudomonas aeruginosa = test: Minimum inhibitory concentration gainst Pseudomonas aeruginosa by broth microdilution technique; type: functional
Staphylococcus aureus = test: Minimum inhibitory concentration gainst Staphylococcus aureus by broth microdilution technique; type: functional
Enterococcus faecalis = test: Minimum inhibitory concentration gainst Streptococcus faecalis by broth microdilution technique; type: functional
Escherichia coli = test: Minimum inhibitory concentration gainst Escherichia coli by broth microdilution technique; type: functional
[1] = Antiviral activity against poliovirus type 2 infected HeLa cells; control=55; type: functional, Poliovirus type2
[2] = Antiviral activity against poliovirus type 2 infected HeLa cells; type: functional, Poliovirus type2

| Molecule | MIC (Klebsiella pneumoniae) [µg/mL] | MIC (Pseudomonas aeruginosa) [µg/mL] | MIC (Staphylococcus aureus) [µg/mL] | MIC (Enterococcus faecalis) [µg/mL] | MIC (Escherichia coli) [µg/mL] | DPM [1] | DPM [2] |
| --- | --- | --- | --- | --- | --- | --- | --- |
| GENTAMICIN | 0.39 | 0.78 | 0.78 |  |  |  |  |
| O=C(CSC1=CC(=O)c2ccccc2C1=O)Nc1cccc2ccccc12 | 25 (≈ 66.9 µM) | > 50 | > 50 | 12.5 (≈ 33.5 µM) | 12.5 (≈ 33.5 µM) |  |  |
| O=C1C=CC(=O)c2c(Cl)ccc(O)c21 |  |  |  |  |  | 375 |  |
| CC(SC1=CC(=O)c2ccccc2C1=O)C(=O)O (stereo not given) | 50 (≈ 191 µM) | > 50 | 25 (≈ 95.3 µM) | 50 (≈ 191 µM) | 50 (≈ 191 µM) |  |  |
| CC(SC1=CC(=O)c2c(O)ccc(O)c2C1=O)C(=O)O (stereo not given) | 50 (≈ 170 µM) | > 50 | > 50 | 25 (≈ 85 µM) | 50 (≈ 170 µM) |  |  |
| CC(SC1=C(O)C(=O)c2ccccc2C1=O)C(=O)O (stereo not given) | 50 (≈ 180 µM) | > 50 | 50 (≈ 180 µM) | 50 (≈ 180 µM) | 50 (≈ 180 µM) |  |  |
| COc1ccc(NC(=O)C(C)SC2=CC(=O)c3ccccc3C2=O)cc1 (stereo not given) | > 50 | > 50 | 25 (≈ 68 µM) | > 50 | 50 (≈ 136 µM) |  |  |
| O=C(O)CSC1=CC(=O)c2ccccc2C1=O |  |  |  |  |  |  | 675 |
| O=C(O)CSC1=CC(=O)c2c(O)ccc(O)c2C1=O | > 50 | > 50 | > 50 | > 50 | > 50 |  |  |
| O=C(CSC1=CC(=O)c2ccccc2C1=O)Nc1ccccc1 | 50 (≈ 155 µM) | > 50 | 12.5 (≈ 38.7 µM) | 50 (≈ 155 µM) | 50 (≈ 155 µM) |  |  |
| COc1ccc(NC(=O)CSC2=CC(=O)c3ccccc3C2=O)cc1 | 6.25 (≈ 17.7 µM) | 50 (≈ 141 µM) | 25 (≈ 70.7 µM) | 6.25 (≈ 17.7 µM) | 12.5 (≈ 35.4 µM) |  |  |
| CC(SC1=CC(=O)c2ccccc2C1=O)C(=O)Nc1ccccc1 (stereo not given) | > 50 | > 50 | 25 (≈ 74.1 µM) | 12.5 (≈ 37 µM) | 6.25 (≈ 18.5 µM) |  |  |
| CC(SC1=CC(=O)c2ccccc2C1=O)C(=O)Nc1ccc([N+](=O)[O-])cc1 (stereo not given) | > 50 | > 50 | 25 (≈ 65.4 µM) | 50 (≈ 131 µM) | 50 (≈ 131 µM) |  |  |
| CC1=C(SC(C)C(=O)O)C(=O)c2ccccc2C1=O (stereo not given) | > 50 | > 50 | 25 (≈ 90.5 µM) | 50 (≈ 181 µM) | 50 (≈ 181 µM) |  |  |
| CC(SC1=CC(=O)c2ccccc2C1=O)C(=O)Nc1cccc2ccccc12 (stereo not given) | > 50 | 50 (≈ 129 µM) | > 50 | > 50 | > 50 |  |  |
| O=C1CSc2c3c(c4ccccc4c2O1)OC(=O)CS3 | 25 (≈ 82.1 µM) | > 50 | > 50 | > 50 | > 50 |  |  |
| COc1ccccc1NC(=O)CSC1=CC(=O)c2ccccc2C1=O | 25 (≈ 70.7 µM) | > 50 | > 50 | > 12.5 | 6.25 (≈ 17.7 µM) |  |  |
| Cc1ccccc1NC(=O)C(C)SC1=CC(=O)c2ccccc2C1=O (stereo not given) | > 50 | > 50 | > 50 | > 50 | > 50 |  |  |
| O=C1C2=C(SCCS2)C(=O)c2ccccc21 | > 50 | 50 (≈ 201 µM) | > 50 | > 50 | > 50 |  |  |
| Cc1ccc(NC(=O)C(C)SC2=CC(=O)c3ccccc3C2=O)cc1 (stereo not given) | > 50 | > 50 | > 50 | > 50 | > 50 |  |  |
| O=C(CSC1=CC(=O)c2ccccc2C1=O)Nc1ccc([N+](=O)[O-])cc1 | > 50 | > 50 | 25 (≈ 67.9 µM) | 12.5 (≈ 33.9 µM) | 6.25 (≈ 17 µM) |  |  |
| Oc1ccc(O)c2c1SCCS2 | > 50 | > 50 | > 50 | > 50 | > 50 |  |  |
| COc1ccccc1NC(=O)C(C)SC1=CC(=O)c2ccccc2C1=O (stereo not given) | 12.5 (≈ 34 µM) | > 50 | > 50 | > 50 | > 50 |  |  |
| Cc1ccccc1NC(=O)CSC1=CC(=O)c2ccccc2C1=O | > 50 | > 50 | 12.5 (≈ 37 µM) | 50 (≈ 148 µM) | 50 (≈ 148 µM) |  |  |
| O=C1C=CC(=O)c2c(O)c3c(c(O)c21)SCCS3 | > 50 | > 50 | > 50 | > 50 | > 50 |  |  |
| Cc1cccc(NC(=O)C(C)SC2=CC(=O)c3ccccc3C2=O)c1 (stereo not given) | > 50 | > 50 | > 50 | > 50 | > 50 |  |  |
